According to patent publication US11001587B2, “Substituted indazoles as phosphatidylinositol kinase inhibitors” (CUROVIR AB, priority 2017, dated 2021):

How the values were obtained:
Format in all cases: cell-based
Enterovirus 6 = assay: In vitro CPE assay in mammalian cell culture, EV6; details: viral cytopathic effect in mammalian cell culture, read-out: EV6 inhibition capacity (IC50)
Enterovirus 30 = assay: In vitro CPE assay in mammalian cell culture, EV30; details: viral cytopathic effect in mammalian cell culture, read-out: EV30 inhibition capacity (IC50)
coxsackie B2 virus = assay: In vitro CPE assay in mammalian cell culture, B2; details: viral cytopathic effect in mammalian cell culture, read-out: B2 inhibition capacity (IC50)
coxsackie B3 virus = assay: In vitro CPE assay in mammalian cell culture, B3; details: Enterovirus B, viral cytopathic effect in mammalian cell culture, read-out: B3 inhibition capacity (IC50)
polio virus Sabin 1 = assay: organism not typed; details: read-out: Polio 1 inhibition capacity (IC50)
coxsackie B4 virus = assay: In vitro CPE assay in mammalian cell culture, B4; details: Enterovirus B, viral cytopathic effect in mammalian cell culture, read-out: B4 inhibition capacity (IC50)
coxsackie B1 virus = assay: In vitro CPE assay in mammalian cell culture, B1; details: viral cytopathic effect in mammalian cell culture, read-out: B1 inhibition capacity (IC50)
Enterovirus 68 = assay: In vitro CPE assay in mammalian cell culture, EV68; details: Enterovirus D, viral cytopathic effect in mammalian cell culture, read-out: EV68 inhibition capacity (IC50)
Enterovirus 71 = assay: In vitro CPE assay in mammalian cell culture, EV71; details: Enterovirus A, viral cytopathic effect in mammalian cell culture, read-out: EV71 inhibition capacity (IC50)
coxsackie B5 virus = assay: In vitro CPE assay in mammalian cell culture, B5; details: viral cytopathic effect in mammalian cell culture, read-out: B5 inhibition capacity (IC50)

## Cc1cc(NCc2ccc(Cl)cc2)c2nc(C)c(-c3ccc4c(c3)c(C)nn4C)n2n1 [Example 3, N-(4-chlorobenzyl)-3-(1,3-dimethyl-1H-indazol-5-yl)-2,6-dimethylimidazo[1,2-b]pyridazin-8-amine]
Enterovirus 6
  IC50: < 1000 nM
Enterovirus 30
  IC50: < 1000 nM
Coxsackie B2 virus
  IC50: < 1000 nM
Coxsackie B3 virus
  IC50: < 1000 nM
Polio virus Sabin 1
  IC50: < 1000 nM
Coxsackie B4 virus
  IC50: < 1000 nM
Coxsackie B1 virus
  IC50: < 100 nM
Enterovirus 68
  IC50: < 1000 nM
Enterovirus 71
  IC50: < 1000 nM

## COc1ccc(CNc2cc(C)nn3c(-c4ccc5c(c4)c(C)nn5C)c(C)nc23)cn1 [Example 4, 3-(1,3-dimethyl-1H-indazol-5-yl)-N-((6-methoxypyridin-3-yl)methyl)-2,6-dimethylimidazo[1,2-b]pyridazin-8-amine]
Enterovirus 6
  IC50: < 1000 nM
Enterovirus 30
  IC50: < 100 nM
Coxsackie B2 virus
  IC50: < 100 nM
Coxsackie B3 virus
  IC50: < 100 nM
Polio virus Sabin 1
  IC50: < 1000 nM
Coxsackie B4 virus
  IC50: < 100 nM
Coxsackie B1 virus
  IC50: < 100 nM
Enterovirus 68
  IC50: < 1000 nM
Enterovirus 71
  IC50: < 100 nM

## Cc1cc(NCc2cccs2)c2nc(C)c(-c3ccc4c(c3)c(C)nn4C)n2n1 [Example 5, 3-(1,3-dimethyl-1H-indazol-5-yl)-2,6-dimethyl-N-(thiophen-2-ylmethyl)imidazo[1,2-b]pyridazin-8-amine]
Enterovirus 6
  IC50: < 100 nM
Enterovirus 30
  IC50: < 100 nM
Coxsackie B2 virus
  IC50: < 100 nM
Coxsackie B3 virus
  IC50: < 100 nM
Polio virus Sabin 1
  IC50: < 100 nM
Coxsackie B4 virus
  IC50: < 100 nM
Coxsackie B1 virus
  IC50: < 1 nM
Enterovirus 68
  IC50: < 1000 nM
Enterovirus 71
  IC50: < 100 nM

## COc1ccc(CNc2cc(C)nn3c(-c4ccc5c(c4)c(C)nn5C)c(C)nc23)cc1 [Example 6, 3-(1,3-dimethyl-1H-indazol-5-yl)-N-(4-methoxybenzyl)-2,6-dimethylimidazo[1,2-b]pyridazin-8-amine]
Enterovirus 30
  IC50: < 1000 nM
Coxsackie B2 virus
  IC50: < 1000 nM
Coxsackie B3 virus
  IC50: < 1000 nM
Polio virus Sabin 1
  IC50: < 1000 nM
Coxsackie B5 virus
  IC50: < 1000 nM
Coxsackie B4 virus
  IC50: < 1000 nM
Coxsackie B1 virus
  IC50: < 1000 nM
Enterovirus 68
  IC50: < 1000 nM

## Cc1ccc(CNc2cc(C)nc3c(-c4ccc5c(c4)c(C)nn5C)c(C)nn23)cn1 [Example 9, 3-(1,3-dimethyl-1H-indazol-5-yl)-2,5-dimethyl-N-((6-methylpyridin-3-yl)methyl)pyrazolo[1,5-a]pyrimidin-7-amine]
Enterovirus 6
  IC50: < 1000 nM
Enterovirus 30
  IC50: < 100 nM
Coxsackie B2 virus
  IC50: < 10 nM
Coxsackie B3 virus
  IC50: < 10 nM
Polio virus Sabin 1
  IC50: < 100 nM
Coxsackie B5 virus
  IC50: < 100 nM
Coxsackie B4 virus
  IC50: < 100 nM
Coxsackie B1 virus
  IC50: < 10 nM
Enterovirus 68
  IC50: < 100 nM
Enterovirus 71
  IC50: < 100 nM

## COc1ccc(CNc2cc(C)nc3c(-c4ccc5c(c4)c(C)nn5C)c(C)nn23)cc1 [Example 10, 3-(1,3-dimethyl-1H-indazol-5-yl)-N-(4-methoxybenzyl)-2,5-dimethylpyrazolo[1,5-a]pyrimidin-7-amine]
Enterovirus 6
  IC50: < 1000 nM
Enterovirus 30
  IC50: < 100 nM
Coxsackie B2 virus
  IC50: < 1000 nM
Coxsackie B3 virus
  IC50: < 100 nM
Polio virus Sabin 1
  IC50: < 1000 nM
Coxsackie B5 virus
  IC50: < 100 nM
Coxsackie B4 virus
  IC50: < 100 nM
Coxsackie B1 virus
  IC50: < 1000 nM
Enterovirus 68
  IC50: < 1000 nM
Enterovirus 71
  IC50: < 1000 nM

## Cc1cc(NCc2ccc(Cl)cc2)n2nc(C)c(-c3ccc4c(c3)c(C)nn4C)c2n1 [Example 11, N-(4-chlorobenzyl)-3-(1,3-dimethyl-1H-indazol-5-yl)-2,5-dimethylpyrazolo[1,5-a]pyrimidin-7-amine]
Enterovirus 6
  IC50: < 1000 nM
Enterovirus 30
  IC50: < 1000 nM
Coxsackie B2 virus
  IC50: < 1000 nM
Coxsackie B3 virus
  IC50: < 1000 nM
Polio virus Sabin 1
  IC50: < 1000 nM
Coxsackie B5 virus
  IC50: < 1000 nM
Coxsackie B4 virus
  IC50: < 100 nM
Coxsackie B1 virus
  IC50: < 1000 nM
Enterovirus 68
  IC50: < 1000 nM
Enterovirus 71
  IC50: < 1000 nM

## COc1ccc(CNc2cc(C)nc3c(-c4ccc5c(c4)c(C)nn5C)c(C)nn23)cn1 [Example 14, 3-(1,3-dimethyl-1H-indazol-5-yl)-N-((6-methoxypyridin-3-yl)methyl)-2,5-dimethylpyrazolo[1,5-a]pyrimidin-7-amine]
Enterovirus 6
  IC50: < 1000 nM
Enterovirus 30
  IC50: < 100 nM
Coxsackie B2 virus
  IC50: < 1000 nM
Coxsackie B3 virus
  IC50: < 10 nM
Polio virus Sabin 1
  IC50: < 100 nM
Coxsackie B5 virus
  IC50: < 1000 nM
Coxsackie B4 virus
  IC50: < 10 nM
Coxsackie B1 virus
  IC50: < 1000 nM
Enterovirus 68
  IC50: < 1000 nM
Enterovirus 71
  IC50: < 1000 nM

## Cc1cc(NCc2cccs2)n2nc(C)c(-c3ccc4c(c3)c(C)nn4C)c2n1 [Example 15, 3-(1,3-dimethyl-1H-indazol-5-yl)-2,5-dimethyl-N-(thiophen-2-ylmethyl)pyrazolo[1,5-a]pyrimidin-7-amine]
Enterovirus 6
  IC50: < 100 nM
Enterovirus 30
  IC50: < 100 nM
Coxsackie B2 virus
  IC50: < 100 nM
Coxsackie B3 virus
  IC50: < 100 nM
Polio virus Sabin 1
  IC50: < 100 nM
Coxsackie B5 virus
  IC50: < 100 nM
Coxsackie B4 virus
  IC50: < 100 nM
Coxsackie B1 virus
  IC50: < 100 nM
Enterovirus 68
  IC50: < 100 nM
Enterovirus 71
  IC50: < 100 nM

## Cc1cc(NCc2ccc(NS(C)(=O)=O)cc2)n2nc(C)c(-c3ccc4c(c3)c(C)nn4C)c2n1 [Example 16, N-(4-(((3-(1,3-dimethyl-1H-indazol-5-yl)-2,5-dimethylpyrazolo[1,5-a]pyrimidin-7-yl)amino)meth-yl)phenyl)methane-sulfonamide]
Enterovirus 6
  IC50: < 1000 nM
Enterovirus 30
  IC50: < 1000 nM
Coxsackie B2 virus
  IC50: < 1000 nM
Coxsackie B3 virus
  IC50: < 100 nM
Polio virus Sabin 1
  IC50: < 1000 nM
Coxsackie B5 virus
  IC50: < 1000 nM
Coxsackie B4 virus
  IC50: < 100 nM
Coxsackie B1 virus
  IC50: < 1000 nM
Enterovirus 68
  IC50: < 1000 nM
Enterovirus 71
  IC50: < 1000 nM

## Cc1cc(NCc2ccc(C(F)(F)F)nc2)n2nc(C)c(-c3ccc4c(c3)c(C)nn4C)c2n1 [Example 17, 3-(1,3-dimethyl-1H-indazol-5-yl)-2,5-dimethyl-N-((6-trifluoromethylpyridin-3-yl)methyl)pyrazolo[1,5-a]pyrimidin-7-amine]
Enterovirus 6
  IC50: < 1000 nM
Enterovirus 30
  IC50: < 1000 nM
Coxsackie B2 virus
  IC50: < 1000 nM
Coxsackie B3 virus
  IC50: < 1000 nM
Polio virus Sabin 1
  IC50: < 1000 nM
Coxsackie B5 virus
  IC50: < 1000 nM
Coxsackie B4 virus
  IC50: < 1000 nM
Enterovirus 71
  IC50: < 100 nM

## Cc1cc(NCc2ccccc2)n2nc(C)c(-c3ccc4c(c3)c(C)nn4C)c2n1 [Example 18, N-(benzyl)-3-(1,3-dimethyl-1H-indazol-5-yl)-2,5-dimethylpyrazolo[1,5-a]pyrimidin-7-amine]
Enterovirus 6
  IC50: < 1000 nM
Coxsackie B2 virus
  IC50: < 100 nM
Coxsackie B3 virus
  IC50: < 100 nM
Polio virus Sabin 1
  IC50: < 100 nM
Coxsackie B5 virus
  IC50: < 1000 nM
Coxsackie B4 virus
  IC50: < 1000 nM
Enterovirus 71
  IC50: < 10 nM

## Cc1cc(NCc2ccc(F)cc2)n2nc(C)c(-c3ccc4c(c3)c(C)nn4C)c2n1 [Example 19, N-(4-fluorobenzyl)-3-(1,3-dimethyl-1H-indazol-5-yl)-2,5-dimethylpyrazolo[1,5-a]pyrimidin-7-amine]
Enterovirus 6
  IC50: < 1000 nM
Coxsackie B2 virus
  IC50: < 1000 nM
Coxsackie B3 virus
  IC50: < 100 nM
Polio virus Sabin 1
  IC50: < 1000 nM
Coxsackie B5 virus
  IC50: < 1000 nM
Coxsackie B4 virus
  IC50: < 1000 nM
Enterovirus 71
  IC50: < 100 nM

## COc1ccc(CNc2nc(C)nc3c(-c4ccc5c(c4)c(C)nn5C)c(C)nn23)cc1 [Example 21, 8-(1,3-dimethyl-1H-indazol-5-yl)-N-(4-methoxybenzyl)-2,7-dimethylpyrazolo[1,5-a][1,3,5]triazin-4-amine]
Enterovirus 30
  IC50: < 1000 nM
Coxsackie B2 virus
  IC50: < 1000 nM
Coxsackie B3 virus
  IC50: < 100 nM
Polio virus Sabin 1
  IC50: < 10 nM
Coxsackie B5 virus
  IC50: < 1000 nM
Coxsackie B4 virus
  IC50: < 1000 nM
Coxsackie B1 virus
  IC50: < 1000 nM
Enterovirus 68
  IC50: < 1000 nM
Enterovirus 71
  IC50: < 100 nM

## Cc1ccc(CNc2nc(C)nc3c(-c4ccc5c(c4)c(C)nn5C)c(C)nn23)cn1 [Example 22, 8-(1,3-dimethyl-1H-indazol-5-yl)-2,7-dimethyl-N-((6-methylpyridin-3-yl)methyl)pyrazolo[1,5-a][1,3,5]triazin-4-amine]
Enterovirus 6
  IC50: < 1000 nM
Enterovirus 30
  IC50: < 100 nM
Coxsackie B2 virus
  IC50: < 10 nM
Coxsackie B3 virus
  IC50: < 1 nM
Polio virus Sabin 1
  IC50: < 1 nM
Coxsackie B5 virus
  IC50: < 100 nM
Coxsackie B4 virus
  IC50: < 1000 nM
Coxsackie B1 virus
  IC50: < 10 nM
Enterovirus 68
  IC50: < 100 nM
Enterovirus 71
  IC50: < 10 nM

## Cc1nc(NCc2ccc(NS(C)(=O)=O)cc2)n2nc(C)c(-c3ccc4c(c3)c(C)nn4C)c2n1 [Example 26, N-(4-(((8-(1,3-dimethyl-1H-indazol-5-yl)-2,7-dimethylpyrazolo[1,5-a][1,3,5]triazin-4-yl)amino)meth-yl)phenyl)methane-sulfonamide]
Enterovirus 6
  IC50: < 1000 nM
Enterovirus 30
  IC50: < 100 nM
Coxsackie B2 virus
  IC50: < 100 nM
Coxsackie B3 virus
  IC50: < 100 nM
Polio virus Sabin 1
  IC50: < 1000 nM
Coxsackie B4 virus
  IC50: < 100 nM
Coxsackie B1 virus
  IC50: < 10 nM
Enterovirus 68
  IC50: < 100 nM
Enterovirus 71
  IC50: < 100 nM

## Cc1nc(NCc2cccs2)n2nc(C)c(-c3ccc4c(c3)c(C)nn4C)c2n1 [Example 27, 8-(1,3-dimethyl-1H-indazol-5-yl)-2,7-dimethyl-N-(thiophen-2-ylmethyl)pyrazolo[1,5-a][1,3,5]triazin-4-amine]
Enterovirus 6
  IC50: < 100 nM
Enterovirus 30
  IC50: < 100 nM
Coxsackie B2 virus
  IC50: < 1 nM
Coxsackie B3 virus
  IC50: < 10 nM
Polio virus Sabin 1
  IC50: < 100 nM
Coxsackie B4 virus
  IC50: < 1 nM
Coxsackie B1 virus
  IC50: < 1 nM
Enterovirus 68
  IC50: < 100 nM
Enterovirus 71
  IC50: < 100 nM

## COc1ccc(CNc2nc(C)nc3c(-c4ccc5c(c4)c(C)nn5C)c(C)nn23)cn1 [Example 28, 8-(1,3-dimethyl-1H-indazol-5-yl)-N-((6-methoxypyridin-3-yl)methyl)-2,7-dimethylpyrazolo[1,5-a][1,3,5]triazin-4-amine]
Enterovirus 6
  IC50: < 1000 nM
Enterovirus 30
  IC50: < 100 nM
Coxsackie B2 virus
  IC50: < 100 nM
Coxsackie B3 virus
  IC50: < 100 nM
Polio virus Sabin 1
  IC50: < 1000 nM
Coxsackie B4 virus
  IC50: < 100 nM
Coxsackie B1 virus
  IC50: < 10 nM
Enterovirus 68
  IC50: < 1000 nM
Enterovirus 71
  IC50: < 100 nM
